# Measurements as given in patent publication US20240207302A1, “ANTIVIRAL COMPOUNDS, METHODS FOR THE MANUFACTURING OF COMPOUNDS, ANTIVIRAL PHARMACEUTICAL COMPOSITION, USE OF THE COMPOUNDS AND METHOD FOR THE ORAL TREATMENT OF CORONAVIRUS INFECTION AND RELATED DISEASES THEREOF” (priority 2021, published 2024).
# Read-outs that look alike come from different tables or passages of the source.
# Experiments:
# [1] = Maximum tolerated dose (OECD 425) and tolerability; type: in vivo; conditions: mice
# Method: The present assay was designed to investigate the safety and tolerability of MB-905. For the MTD assay (OECD 425), mice (3 animals of each sex/group) were divided into five experimental groups and the up and down procedure was applied to which 175 mg/kg was used as the first dose. […] Mortality, morbidity, body weight, food consumption, general and detailed clinical signs of toxicity were evaluated. At necropsy, vital (brain, heart, liver, spleen, kidneys and adrenal glands) and reproductive organs (ovaries, testicles and epididymis) were carefully removed, weighed and stored for further analysis (if necessary).
# SARS-COV-2 [2] = test system: SARS-COV-2
# SARS-COV-2 VoC gamma = type: in vivo, mice
# [3] = Cytotoxicity assay (XTT) in Huh-7 cells; type: cell-based; conditions: human
# Method: In parallel, cytotoxicity assays were performed. Monolayers of 1.5×10^4 cells in 96-well plates were treated for 3 days with various concentrations (semi-log dilutions from 1,000 to 10 μM) of the antiviral drugs. Then, 5 mg/mL 2,3-bis-(2-methoxy-4-nitro-5-sulfophenyl)-2H-tetrazolium-5-carboxanilide (XTT) in DMEM was added to the cells in the presence of 0.01% of N-methyl dibenzopyrazine methyl sulfate (PMS).
# [4] = test system: mouse bone marrow polychromatic erythrocytes; experiment: Micronucleus test in mouse bone marrow; type: in vivo; conditions: mice
# Method: The ratio of polychromatic to normochromatic erythrocytes and the count of micronuclei were determined. This assay was conducted in compliance with the GLP principles.
# SARS-COV-2 viral RNA = experiment: Immunoprecipitation of viral RNA with anti-kinetin antibody, RT-PCR; type: cell-based; conditions: SARS-COV-2-infected calu-3 cells
# SARS-COV-2 [5] = experiment: SARS-COV-2 viral RNA synthesis in Vero cells (real time RT-PCR); type: cell-based; conditions: Severe acute respiratory syndrome coronavirus 2; Vero (MOI 0.01 24 h); read-out: EC50
# [6] = Cardiovascular safety pharmacology by telemetry; conditions: rats; 50 or 250 mg/Kg oral, single or repeated (7 days)
# Method: Data are presented as mean±S.E.M. Statistical analysis was performed by two-way ANOVA followed by Bonferroni post hoc test. n=4-6 animals per group.
# [7] = Pharmacokinetics of MB-905 in three pre-formulations in mice; type: in vivo
# Source text: FIG. 21. Pharmacokinetics of MB-905 in three pre-formulations in mice.
# Thus, the pre-formulation was used for most subsequent in vivo studies.
# SARS-COV-2 [8] = experiment: SARS-COV-2 RNA loads in human primary monocytes; type: cell-based; conditions: 24 h
# Method: FIG. 5A, 5B and 5C. The compounds impair SARS-COV-2 RNA synthesis and SARS-COV-2-induced release of inflammatory mediators in human primary monocytes.
# Human primary monocytes were obtained after 3 h of plastic adherence of peripheral blood mononuclear cells (PBMCs). PBMCs were isolated from healthy donors by density gradient centrifugation (Ficoll-Paque, GE Healthcare). PBMCs (2.0×10^6 cells) were plated onto 48-well plates (NalgeNunc) in RPMI-1640 without serum for 2 to 4 h. Non-adherent cells were removed, and the remaining monocytes were maintained in DMEM with 5% human serum (HS; Millipore) and penicillin/streptomycin. Monocytes were infected at MOI of 0.1. After 1 h inoculation period, cells were washed with phosphate saline buffer (PBS) to remove unbounded viruses and treated with 1 μM of the indicated compounds. After 24 h after infection, cell monolayers werc lysed total viral RNA was extracted, quantitative RT-PCR was performed, to detect the SARS-COV-2 and the housekeeping gene RNAse P.
# [9] = test system: murine hepatitis virus (MHV); type: in vivo, mice; conditions: DAC 60 mg/kg/day
# SARS-COV-2 [10] = experiment: SARS-COV-2 viral RNA synthesis in Calu-3 cells (real time RT-PCR); type: cell-based; conditions: 1.0 μM
# [11] = Severe acute respiratory syndrome coronavirus 2, Calu-3, 72 h, Calu-3 (MOI 0.5 72 h), daily treatment
# [12] = Severe acute respiratory syndrome coronavirus 2, Calu-3, 72 h, Calu-3 (MOI 0.5 72 h), single moment treatment
# [13] = Severe acute respiratory syndrome coronavirus 2, Calu-3, Table 6, Calu-3, daily treatment
# [14] = Severe acute respiratory syndrome coronavirus 2, Calu-3, Table 6, Calu-3, single treatment
# [15] = 140 mg/kg/day alone and in combination with DTG
# [16] = 140 mg/kg/day, vs untreated animals
# [17] = mouse, plasma, po, 3 mg/kg, 5% Carboxymethylcellulose, 3 mg/kg (v.o.)
# [18] = mouse, plasma, po, 3 mg/kg, 5% Tween80 + 95% PEG400, 3 mg/kg (p.o.)
# [19] = mouse, plasma, po, 3 mg/kg, 5% ethanol, 30% Propylene Glycol, 45% PEG 400, 20% water, 3 mg/kg (v.o.)
# [20] = mouse, plasma, po, 30 mg/kg, 5% Carboxymethylcellulose, 30 mg/kg (p.o.)
# [21] = mouse, plasma, po, 30 mg/kg, 5% Tween80 + 95% PEG400, 30 mg/kg (p.o.)
# [22] = mouse, plasma, po, 30 mg/kg, 5% ethanol, 30% Propylene Glycol, 45% PEG 400, 20% water, 30 mg/kg (p.o.)
# [23] = mouse, plasma, po, 550 mg/kg, 5% ethanol, 30% Propylene Glycol, 45% PEG 400, 20% water, 550 mg/kg (p.o.)
compound,measurement,setting,value
"c1coc(CNc2ncnc3[nH]cnc23)c1 [MB-905, kinetin]",NOAEL at 7 days,"[1]; both sexes, mouse, in vivo, oral, MTD study",550 mg/kg
same,clinical signs,"[1]; 1,150 mg/kg oral","piloerection, reduced touch response, prostration, loss of grasping strength, decrease in body temperature and death"
same,"death after compound administration, time","[1]; 1,150 mg/kg oral",≤ 4 h
same,clinical signs,"[1]; 175, 550 and 850 mg/kg oral",did not result in any observable clinical signs indicating toxicity
same,morbidity and mortality,"[1]; 175, 550 and 850 mg/kg oral",did not result in any signs indicative of toxicity
same,body weight change and food consumption,"[1]; single 175, 550 or 850 mg/kg",not observed any significant change
same,organs weight,"[1]; single oral 175, 550 or 850 mg/kg",did not show any changes
same,EC50,SARS-COV-2 [2]; [11],30 nM
same,EC90,SARS-COV-2 [2]; [11],2100 nM
same,EC50,SARS-COV-2 [2]; [12],310 nM
same,EC90,SARS-COV-2 [2]; [12],2800 nM
same,EC50,SARS-COV-2 [2]; [13],30 nM
same,EC90,SARS-COV-2 [2]; [13],2100 nM
same,EC50,SARS-COV-2 [2]; [14],310 nM
same,EC90,SARS-COV-2 [2]; [14],2800 nM
same,anti-coronavirus activity with simultaneous adenine,"SARS-COV-2 [2]; calu-3, adenine at 10 μM",prevented
same,anti-coronavirus activity (SARS-COV-2 replication),"SARS-COV-2 [2]; calu-3, treatment just after inoculation",concentration dependent inhibition
same,body weight,SARS-COV-2 VoC gamma; [15],sustain their masses beyond the threshold of euthanasia
same,overall clinical scores,SARS-COV-2 VoC gamma; [15],improved
same,virus RNA levels in the lungs,SARS-COV-2 VoC gamma; 140 mg/kg/day with or without DTG,did not alter
same,infectious titers,"SARS-COV-2 VoC gamma; 140 mg/kg/day with or without DTG, BAL",decreased significantly
same,IL-6 in BAL,SARS-COV-2 VoC gamma; [16],reduced
same,KC in BAL,SARS-COV-2 VoC gamma; [16],reduced
same,TNF-α in BAL,SARS-COV-2 VoC gamma; [16],reduced
same,inflammatory cells counts in BAL,SARS-COV-2 VoC gamma; [16],reduced
same,survival,SARS-COV-2 VoC gamma; 70 mg/kg/day oral with DTG,Higher survival rates
same,survival,"SARS-COV-2 VoC gamma; 140 mg/kg/day oral, combined or not with DTG",Higher survival rates
same,lung necrosis,SARS-COV-2 VoC gamma; alone or combined with DTG,reduced
same,CC50 at 3 days,[3],560000 nM
same,"MNPCE/4,000 PCE (Mean ± S.D.)",[4]; 32 mg/Kg p.o.,8.50 ± 4.50
same,"MNPCE/4,000 PCE (Mean ± S.D.)",[4]; 125 mg/Kg p.o.,8.50 ± 3.81
same,"MNPCE/4,000 PCE (Mean ± S.D.)",[4]; 500 mg/Kg p.o.,9.00 ± 2.45
same,levels of N6-furfuryladenine in viral RNA vs isotype control and nil-treated cells,SARS-COV-2 viral RNA,more than 10 fold
same,EC50,SARS-COV-2 [5],5000 nM
same,"cardiovascular hemodynamic parameters (systolic, diastolic, mean blood pressure, heart rate)",[6],did not induces any changes
same,Cmax,"[7]; 5% ethanol, 30% Propylene Glycol, 45% PEG 400, 20% water, 30 mg/kg (p.o.)",569.97 ng/mL
same,Cmax,"[7]; 5% ethanol, 30% Propylene Glycol, 45% PEG 400, 20% water, 550 mg/kg (p.o.)",1053.37 ng/mL
same,Tmax,"[7]; CD1, mouse, plasma, po, 3 mg/kg, 5% Carboxymethylcellulose, 3 mg/kg (v.o.)",0.25 h
same,Cmax,"[7]; CD1, mouse, plasma, po, 3 mg/kg, 5% Carboxymethylcellulose, 3 mg/kg (v.o.), read-out: Cmax",70.2 ng/mL
same,Tmax,"[7]; CD1, mouse, plasma, po, 3 mg/kg, 5% Tween80 + 95% PEG400, 3 mg/kg (p.o.)",0.25 h
same,Cmax,"[7]; CD1, mouse, plasma, po, 3 mg/kg, 5% Tween80 + 95% PEG400, 3 mg/kg (p.o.), read-out: Cmax",60.8 ng/mL
same,Tmax,"[7]; CD1, mouse, plasma, po, 3 mg/kg, 5% ethanol, 30% Propylene Glycol, 45% PEG 400, 20% water, 3 mg/kg (v.o.)",0.25 h
same,Cmax,"[7]; CD1, mouse, plasma, po, 3 mg/kg, 5% ethanol, 30% Propylene Glycol, 45% PEG 400, 20% water, 3 mg/kg (v.o.), read-out: Cmax",64 ng/mL
same,Tmax,"[7]; CD1, mouse, plasma, po, 30 mg/kg, 5% Carboxymethylcellulose, 30 mg/kg (p.o.)",0.25 h
same,Cmax,"[7]; CD1, mouse, plasma, po, 30 mg/kg, 5% Carboxymethylcellulose, 30 mg/kg (p.o.), read-out: Cmax",504 ng/mL
same,Tmax,"[7]; CD1, mouse, plasma, po, 30 mg/kg, 5% Tween80 + 95% PEG400, 30 mg/kg (p.o.)",0.25 h
same,Cmax,"[7]; CD1, mouse, plasma, po, 30 mg/kg, 5% Tween80 + 95% PEG400, 30 mg/kg (p.o.), read-out: Cmax",507 ng/mL
same,Tmax,"[7]; CD1, mouse, plasma, po, 300 mg/kg, 5% Carboxymethylcellulose, 300 mg/kg (p.o.)",8 h
same,Cmax,"[7]; CD1, mouse, plasma, po, 300 mg/kg, 5% Carboxymethylcellulose, 300 mg/kg (p.o.), read-out: Cmax",1020 ng/mL
same,Tmax,"[7]; CD1, mouse, plasma, po, 300 mg/kg, 5% Tween80 + 95% PEG400, 300 mg/kg (p.o.)",0.25 h
same,Cmax,"[7]; CD1, mouse, plasma, po, 300 mg/kg, 5% Tween80 + 95% PEG400, 300 mg/kg (p.o.), read-out: Cmax",1030 ng/mL
same,AUC,[7]; [17],107 ng·h/mL
same,half-life,[7]; [17],2.18 h
same,AUC,[7]; [18],153 ng·h/mL
same,half-life,[7]; [18],2.63 h
same,AUC,[7]; [19],98.4 ng·h/mL
same,half-life,[7]; [19],1.92 h
same,AUC,[7]; [20],525 ng·h/mL
same,half-life,[7]; [20],1.67 h
same,AUC,[7]; [21],1110 ng·h/mL
same,half-life,[7]; [21],2.27 h
same,AUC,[7]; [22],763 ng·h/mL
same,Tmax,[7]; [22],0.25 h
same,half-life,[7]; [22],3.61 h
same,AUC,"[7]; mouse, plasma, po, 300 mg/kg, 5% Carboxymethylcellulose, 300 mg/kg (p.o.)",14800 ng·h/mL
same,AUC,"[7]; mouse, plasma, po, 300 mg/kg, 5% Tween80 + 95% PEG400, 300 mg/kg (p.o.)",11500 ng·h/mL
same,AUC,[7]; [23],11600 ng·h/mL
same,Tmax,[7]; [23],1 h
same,half-life,[7]; [23],8.63 h
same,viral RNA levels/cell,SARS-COV-2 [8],reduced
same,weight recovery,[9]; MB-905 250 mg/kg/day,did not allow complete weight recovery
same,inflammatory cells in the respiratory tract,"[9]; day 11, MB-905 250 mg/kg/day",less inflammatory cells
same,mortality,"[9]; oral gavage daily from day 2, MB-905 250 mg/kg/day",reduced the mice mortality by half
same,inhibition of SARS-COV-2 RNA synthesis,SARS-COV-2 [10],best profiles
